Results from article PMC10804683, “Identification of the pyridoxal 5′‐phosphate allosteric site in human pyridox(am)ine 5′‐phosphate oxidase” (Protein Science : A Publication of the Protein Society, 2024).
Residue numbers refer to the chain shown, from its start. Values joined by “and” are separate entries in the source; they are usually repeats but may differ in a detail not shown here. Equal entries are not always repeated. “Also recorded” adds a separate entry of the source.

Key:
[1] = molecular target: T1, human PNPO F48A/E50L/R258L variant (Homo sapiens, UniProt Q9NVS9, E50L/F48A/R258L); assay: PLP binding by DSF, triple variant; conditions: 50 mM Na-HEPES pH 7.6, 2 μM enzyme
T1 construct: a main form corresponding to the entire protein; made in house; host or cells: E. coli BL21(DE3)
T1 sequence (Q9NVS9 1-261 F48A/E50L/R258L): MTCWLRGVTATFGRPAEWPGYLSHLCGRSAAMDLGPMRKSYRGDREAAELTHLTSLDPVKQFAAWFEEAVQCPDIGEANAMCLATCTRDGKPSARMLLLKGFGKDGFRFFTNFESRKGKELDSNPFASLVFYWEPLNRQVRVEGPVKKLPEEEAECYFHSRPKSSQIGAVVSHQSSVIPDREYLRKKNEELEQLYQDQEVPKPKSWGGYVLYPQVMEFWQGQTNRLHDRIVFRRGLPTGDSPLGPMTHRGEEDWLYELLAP
From the text: (§1) PLP binding to PNPO can be detected and quantitatively measured using differential scanning fluorimetry (DSF) and also by measuring FMN fluorescence changes. We had previously attributed DSF changes to PLP binding at the active site, while FMN fluorescence changes were attributed to PLP binding at the allosteric site (Barile et al., [2019], [2020]). Previous experiments carried out with the PNPO R161C variant, affecting a residue that is essential for substrate binding and catalysis (and therefore also for PLP binding at the active site), confirms that DSF measurements only report PLP binding at the active site (Barile et al., [2021]; Table 1). […] We expected to observe no FMN fluorescence changes upon titration of the variants with PLP. However, this was not the case, and the dissociation constant values obtained by observing the FMN fluorescence emission were only up to threefold larger in the variants with respect to wild type PNPO (Figure 3). […] To check the second possibility, we measured intrinsic fluorescence changes of wild type and variant apo‐forms (i.e., without FMN) upon PLP titration. […]
FIGURE 2 DSF measurements with F48A (a), F48A/E50L/R258L (b), F48A/E50L/H248N/R258L (c), and 1‐31del PNPO variants in the presence of different PLP concentrations. Upper panels: Fluorescence change is expressed as fractional variation as a function of temperature. […]

[2] = molecular target: T2, apo-PNPO wt (Homo sapiens, UniProt Q9NVS9); assay: PLP binding by intrinsic fluorescence, apo wild type; conditions: intrinsic fluorescence 335–345 nm, excitation 280 nm, 100 nM enzyme, read-out: Apo-enzyme PLP binding KD^FLUO
T2 construct: a main form corresponding to the entire protein; made in house; host or cells: E. coli BL21(DE3)
T2 sequence (Q9NVS9 1-261): T1 sequence (Q9NVS9 1-261 F48A/E50L/R258L) with A48F, L50E, L258R
From the text: as §1
(§2) Analyses of PLP binding, based on FMN fluorescence increase observed upon binding of PLP to PNPO, were performed as described in Barile et al. ([2020]). […] Emission spectra were recorded from […], with excitation and emission slits set at 3 and 5 nm, respectively. […]

[3] = molecular target: T3, apo-PNPO F48A/E50L/R161C/R258L (Homo sapiens, UniProt Q9NVS9, E50L/F48A/R161C/R258L); assay: PLP binding by intrinsic fluorescence, apo F48A/E50L/R161C/R258L; conditions: excitation 280 nm, 100 nM enzyme
T3 construct: together with a main form corresponding to the entire protein (estimated molecular mass of 31.0 ± 0.7 kDa); made in house; host or cells: E. coli BL21(DE3)
T3 sequence (Q9NVS9 1-261 F48A/E50L/R161C/R258L): T1 sequence (Q9NVS9 1-261 F48A/E50L/R258L) with R161C
From the text: as §1, §2

Cc1ncc(COP(=O)(O)O)c(C=O)c1O [PLP, pyridoxal 5′‐phosphate]
Kd [1]: 6.28 µM and 6.3 µM | Kd [2]: 0.6 ± 0.05 µM | Apo-enzyme PLP binding KD^FLUO [3]: no variation in the emitted fluorescence was observed; also recorded: No binding
